Results reported in US20130096193A1, “CREATINE BETA-ALANINATE: A NOVEL SALT FOR INCREASING ATHLETIC PERFORMANCE” (priority 2009, published 2013).
Like-named read-outs stand apart in the source and are kept apart here.

Experiments:
[1] = cited from earlier work
[2] = after 10 week supplementation; cited from earlier work

Row | Compound | paraesthesia symptoms ([1]; 10 mg per kg body weight, some individuals) | paraesthesia symptoms ([1]; 20 mg per kg bodyweight, majority of individuals) | paraesthesia symptoms ([1]; 40 mg per kg body weight) | ingested amount that causes paraesthesia ([1]; in solution or as powder in gelatin capsules) | duration of paraesthesia ([1]; oral) | time to beginning of paraesthesia after oral administration ([1]; oral) | increase in intramuscular carnosine content, average [2] | additional β-alanine administrable before symptoms of paraesthesia, compared with β-alanine alone (human subjects, oral) | single oral dose administered before the onset of paraesthesia was noted (human subjects, oral, gelatin capsules, single dose) | equivalent β-alanine dose before onset of paraesthesia (salt mass is about 40.45% β-alanine)
1 | NCCC(=O)O [β-alanine, 3-Aminopropanoic acid] | mild symptoms | significant symptoms | severe symptoms | above 10 mg per kg body weight | up to 1 hour | about 20 minutes | 80.1% |  |  | 
2 | creatine β-alaninate |  |  |  |  |  |  |  | roughly 100% | up to 55.00 mg/kg | about 22.25 mg/kg
